From US4965280A, “Antifungal carbinols” (E. I. Du Pont de Nemours and Company, priority 1989, dated 1990)
Values after ≈ are worked out from the molar mass of the structure shown. Where two headings read alike, the source gives them in different places.

Tests used:
[1] = tested on: BARNYARDGRASS; assay: Test C rice paddy; assay type: in vivo, Echinochloa crusgalli; conditions: Echinochloa crus-galli, 504 h, 21 days, read-out: plant response
Source text: (§1) Sixteen cm diameter Airlite plastic pots were partially filled with Tama slit loam soil and the soil saturated with water. Japonica and Indica rice seedlings a the 2.0 to 2.5 leaf stage were transplanted into 1/3 of the pots. Into another third of the pots were transplanted seedling or sprouted tubers of water plantain (Alisma trivale), Scripus (Scirpus paludosus), Cyperus (Cyperus esculentus), and arrowhead (Sagittaria spp.). The remaining pots were planted with barnyardgrass (Echinochloa crusgalli) seeds and sprouted tubes of water chestnut (Eleocharis spp.). These weeds all represent major rice weeds or genera of weeds important in rice. Three to four days after planting, the water level was raised to 3 cm (about 1200 ml/pot) and maintained a this level throughout the test. Chemical treatments were applied directly to the paddy water, within 24 hours of raising the water, after being formulated in a nonphytotoxic solvent. The pots were maintained in the greenhouse.

[2] = tested on: WATERCHESTNUT; assay: Test C rice paddy; assay type: in vivo, Eleocharis spp.; conditions: Eleocharis, 504 h, 21 days, read-out: plant response
Source text: as §1

[3] = tested on: ARROWHEAD; assay: Test C rice paddy; assay type: in vivo, Sagittaria spp.; conditions: Sagittaria, 504 h, 21 days, read-out: plant response
Source text: as §1

[4] = tested on: SCIRPUS; assay: Test C rice paddy; assay type: in vivo, Scirpus paludosus; conditions: Bolboschoenus maritimus, 504 h, 21 days, read-out: plant response
Source text: as §1

[5] = tested on: WATER PLAINTAIN; assay: Test C rice paddy; assay type: in vivo, Alisma trivale; conditions: 504 h, 21 days, read-out: plant response
Source text: as §1

[6] = tested on: RICE JAP EFF; assay: Test C rice paddy; assay type: in vivo, Japonica rice; conditions: Oryza sativa, 504 h, 21 days, read-out: plant response
Source text: as §1

[7] = tested on: RICE INDICA EFF; assay: Test C rice paddy; assay type: in vivo; conditions: Oryza sativa, 504 h, 21 days, read-out: plant response
Source text: as §1

[8] = tested on: Candida albicans ATCC 11651; assay: In vivo systemic Candida infection in mice, primary assay; design: species or system Candida albicans; CF-1 female mice; conditions: Candida albicans, 150 mg/kg per day, read-out: % Survival
Outline: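 CF-1 female mice (20 g, 10 per group) were infected IV with 0.2 ml of 1×10^7/ml C. albicans ATCC 11651, then given test compound subcutaneously at 50 or 150 mg/kg/day at 1 and 6 h post-infection and once daily for three more days. Survival was followed for 21 days against infected untreated mice; ≥70% protection at 14 days was scored active.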

[9] = tested on: Venturia inaequalis; assay: Example A apple scab; assay type: in vivo; conditions: 20 PPM, read-out: disease control rating, Ex. A
Outline: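 First, compounds are taken up in acetone amounting to 6% of the final volume. Next, they are suspended in purified water with 250 ppm TREM 014 at 100 or 20 ppm. Finally, seedlings of apple are sprayed until run-off.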

[10] = tested on: Cercosporidium personatum; assay: Example B Peanut Late Leafspot; assay type: in vivo; conditions: Nothopassalora personata; 20 PPM; read-out: disease control rating, Ex. B
Outline: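 Dose 100 or 20 ppm; vehicle acetone 6% v/v final in water + 250 ppm surfactant; applied by spraying peanut seedlings to run-off.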

[11] = tested on: Botrytis cinerea; assay: Example C bean grey mold; assay type: in vivo; conditions: Botrytis cinerea, 24 h, read-out: disease control rating, Ex. C
Outline: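 At 20 or 100 ppm, each compound was applied as an aqueous suspension (acetone 6% final; TREM 014 250 ppm) sprayed onto young broad bean plants to the point of run-off.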

[12] = tested on: Erysiphe graminis f. sp. tritici; assay: Example D wheat powdery mildew; assay type: in vivo; conditions: Blumeria graminis, 144 h; 20 PPM; read-out: disease control rating, Ex. D
Outline: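 First, compound taken up in acetone, 6% of the end volume. Next, suspended in water with 250 ppm polyhydric alcohol esters at 100 or 20 ppm. Last, applied to wheat seedlings until run-off.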

[13] = tested on: Pyricularia oryzae; assay: whole plant or invertebrate; assay type: in vivo; conditions: Pyricularia oryzae, 120 h
[14] = tested on: Rhizoctonia solani; assay: Example F rice sheath blight; assay type: in vivo; conditions: Rhizoctonia solani, 144 h, read-out: disease control rating, Ex. F
Outline: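 Application rates were 100 or 20 ppm, delivered as a foliar spray to the point of run-off on rice seedlings. The formulation used 6% acetone in water with 250 ppm surfactant.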

[15] = tested on: Puccinia recondita; assay: Example G wheat leaf rust; assay type: in vivo; conditions: 20 PPM, read-out: disease control rating, Ex. G
[16] = tested on: Phytophthora infestans; assay: whole plant or invertebrate; assay type: in vivo; conditions: Phytophthora infestans, in Solanum lycopersicum, read-out: disease control rating, Ex. H, 100 PPM
[17] = tested on: Plasmorpara viticola; assay: Example I grape downy mildew; assay type: in vivo; conditions: read-out: disease control rating, Ex. I
Outline: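 Compounds were dissolved in acetone (6% of final volume) and suspended at 100 or 20 ppm in purified water with 250 ppm TREM 014 surfactant (polyhydric alcohol esters). Grape seedlings were sprayed with this suspension to run-off.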

[18] = tested on: Pythium aphanadermatum; assay: Example J cucumber damping off; assay type: in vivo; conditions: Pythium, 336 h; 5 kg/ha; read-out: disease control rating, Ex. J
Outline: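 Seeds and soil were inoculated with a mix of sand, cereal and Pythium aphanadermatum mycelium, the fungus responsible for cucumber damping off. They were kept in a growth chamber at 30° C. for 14 days, and disease was then rated to assess control.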

[19] = tested on: Rhizoctonia solani; assay: Example K cotton blight; assay type: in vivo; conditions: 336 h, 5 kg/ha, read-out: disease control rating, Ex. K
Experimental: […] Seeds and soil were then inoculated with a mixture of sand, cereal and mycelium of the fungus Rhizoctonia solani, causal agent of cotton blight, and incubated in a growth chamber at 30° C. for 14 days. Disease ratings were then made.

[20] = tested on: Fusarium oxysporum f. sp. cucumerinum; assay: Example L cucumber wilt; assay type: in vivo; conditions: 336 h, 5 kg/ha, read-out: disease control rating, Ex. L
Experimental: […] Seeds and soil were then inoculated with a mixture of sand, cereal and mycelium of the fungus Fusarium oxysporum f. sp. cucumerinum, causal agent of cucumber wilt, and incubated in a growth chamber at 30° C. for 14 days. Disease ratings were then made.

[21] = tested on: Sclerotium rolfsii; assay: Example M southern blight; assay type: in vivo; conditions: Agroathelia rolfsii, 336 h; 5 kg/ha; read-out: disease control rating, Ex. M
Experimental: […] Seeds and soil were then inoculated with a mixture of sand, cereal and mycelium of the fungus Sclerotium rolfsii, causal agent of sourthern blight, and incubated in a growth chamber at 30° C. for 14 days. Disease ratings were then made.

[22] = tested on: Candida albicans ATCC 11651; assay: In vitro antifungal MIC, microtiter broth dilution; conditions: Candida albicans, ATCC11651, 24 h, read-out: MIC values, C. albicans, 30°, 24 hours
[23] = tested on: Aspergillus fumigatus ATCC 28214; assay: In vitro antifungal MIC, microtiter broth dilution; conditions: Aspergillus fumigatus, ATCC28214, 24 h, read-out: MIC values, A. fumigatus, 30°, 24 hours
Experimental: In vitro activity (Table 5) is expressed in terms of the minimal inhibitory concentration (MIC) of the test compound which inhibits the growth of yeasts and fungi.
The target organisms, Candida albicans ATCC 11651 and Aspergillus fumigatus ATCC 28214 are standardized, [V. Bezjak, J. Clinical Micro., 21 509-512 (1984)], to a concentration of 10^7 organisms/ml and maintained at -70° until use. Test compounds are solubilized in dimethyl sulfoxide (DMSO) and diluted in Eagle's Minimum Essential Medium (EMEM) broth to achieve a final concentration of 200 μg/ml. Stock solutions of standard antifungal agents are stored at -70° and diluted in EMEM as required.
The in vitro assay utilizes a microtiter broth dilution technique [L. Polonelli and G. Morace, Mycopathologia, 86, 21-28 (1984)] and C. […] The appropriate wells are inoculated with the required organism (C. albicans at 1×10^4 organisms/ml and A. fumigatus at 5×10^5 organisms/ml) and the assay incubated at 30° for 24 hours.

SMILES: C=C(c1cccc(F)c1)C(O)(Cn1cncn1)c1ccc(F)cc1F (centres unmarked) [Example 18]
- pest or weed control at 64 g/ha ([1]; 0064 G/HA): 0%
- pest or weed control at 125 g/ha ([1]; 0125 G/HA): 0%
- pest or weed control at 250 g/ha ([1]; 0250 G/HA): 0%
- pest or weed control at 500 g/ha ([1]; 0500 G/HA): 40%
- pest or weed control at 1000 g/ha ([1]; 1000 G/HA): 60%
- pest or weed control at 64 g/ha ([2]; 0064 G/HA): 0%
- pest or weed control at 125 g/ha ([2]; 0125 G/HA): 0%
- pest or weed control at 250 g/ha ([2]; 0250 G/HA): 0%
- pest or weed control at 500 g/ha ([2]; 0500 G/HA): 40%
- pest or weed control at 1000 g/ha ([2]; 1000 G/HA): 50%
- pest or weed control at 64 g/ha ([3]; 0064 G/HA): 0%
- pest or weed control at 125 g/ha ([3]; 0125 G/HA): 0%
- pest or weed control at 250 g/ha ([3]; 0250 G/HA): 0%
- pest or weed control at 500 g/ha ([3]; 0500 G/HA): 20%
- pest or weed control at 1000 g/ha ([3]; 1000 G/HA): 35%
- pest or weed control at 64 g/ha ([4]; 0064 G/HA): 0%
- pest or weed control at 125 g/ha ([4]; 0125 G/HA): 0%
- pest or weed control at 250 g/ha ([4]; 0250 G/HA): 0%
- pest or weed control at 500 g/ha ([4]; 0500 G/HA): 0%
- pest or weed control at 1000 g/ha ([4]; 1000 G/HA): 0%
- pest or weed control at 64 g/ha ([5]; 0064 G/HA): 0%
- pest or weed control at 125 g/ha ([5]; 0125 G/HA): 0%
- pest or weed control at 250 g/ha ([5]; 0250 G/HA): 0%
- pest or weed control at 500 g/ha ([5]; 0500 G/HA): 20%
- pest or weed control at 1000 g/ha ([5]; 1000 G/HA): 40%
- pest or weed control at 64 g/ha ([6]; 0064 G/HA): 0%
- pest or weed control at 125 g/ha ([6]; 0125 G/HA): 0%
- pest or weed control at 250 g/ha ([6]; 0250 G/HA): 0%
- pest or weed control at 500 g/ha ([6]; 0500 G/HA): 50%
- pest or weed control at 1000 g/ha ([6]; 1000 G/HA): 70%
- pest or weed control at 64 g/ha ([7]; 0064 G/HA): 0%
- pest or weed control at 125 g/ha ([7]; 0125 G/HA): 0%
- pest or weed control at 250 g/ha ([7]; 0250 G/HA): 0%
- pest or weed control at 500 g/ha ([7]; 0500 G/HA): 30%
- pest or weed control at 1000 g/ha ([7]; 1000 G/HA): 50%

SMILES: C=C(c1ccc(C(F)(F)F)cc1)C(O)(Cn1cncn1)c1ccc(Cl)cc1 (centres unmarked) [Example 67]
- responders at 150 mg/kg ([8]; ATCC11651, 168 h, day 7): 100%
- responders at 150 mg/kg ([8]; ATCC11651, 336 h, day 14): 100%
- responders at 150 mg/kg ([8]; ATCC11651, 504 h, day 21): 100%
- pest or weed control at 20 ppm [9]: 58%
- pest or weed control at 20 ppm [10]: 99%
- pest or weed control at 20 ppm ([11]; 20 PPM): 60%
- pest or weed control at 100 ppm ([11]; 100 PPM): 75%
- pest or weed control at 20 ppm [12]: 85%
- pest or weed control at 20 ppm ([13]; read-out: disease control rating, Ex. E, 20 PPM): 0%
- pest or weed control at 100 ppm ([13]; read-out: disease control rating, Ex. E, 100 PPM): 0%
- pest or weed control at 20 ppm ([14]; 20 PPM): 35%
- pest or weed control at 100 ppm ([14]; 100 PPM): 68%
- pest or weed control at 20 ppm [15]: 89%
- pest or weed control at 100 ppm [16]: 2%
- pest or weed control at 100 ppm [17]: 1%
- pest or weed control at 5000 g/ha [18]: 0%
- pest or weed control at 5000 g/ha [19]: 0%
- pest or weed control at 5000 g/ha [20]: 0%
- pest or weed control at 5000 g/ha [21]: 0%
- MIC [22]: 0.03 µg/mL (≈ 0.0762 µM)
- MIC [23]: 100 µg/mL (≈ 254 µM)
